Results taken from patent US20250051355A1, “COMPOUNDS, COMPOSITIONS, AND METHODS” (ACONCAGUA BIO, INC., priority 2023, published 2025).
pEC50: −log10 of the molar value.

Experiments:
[1] = molecular target: human calcitonin receptor (CTR) and RAMP3 (AMY3) (Homo sapiens, UniProt O60896+P30988); test: Amylin Receptor cAMP Assay I; type: cell-based; conditions: COS-7/AMY3 cells, cAMP Hi-range Kit, read-out: Amylin Receptor cAMP Stimulation Activity: EC50
How it was run: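 COS-7 cells stably co-expressing human CTR and RAMP3, 1000 cells/well, exposed to 4-fold serially diluted compound in DPBS with 0.5 mM IBMX and 0.1% BSA for 30 min at 37° C. cAMP accumulation measured by HTRF (cAMP-d2 plus anti-cAMP cryptate, 1 h room temperature), read at 665/615 nm.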

[2] = molecular target: T1, human calcitonin receptor (CTR) (Homo sapiens, UniProt P30988); test: Calcitonin receptor (CTR) cAMP Assay; type: cell-based; conditions: COS7-human CTR Clone #2 cells, cAMP dynamic 2 kit; read-out: Calcitonin Receptor cAMP Stimulation Activity: EC50
T1 construct: expressed in transfected cells; host or cells: COS-7 (COS7-human CTR Clone #2)
T1 sequence (P30988 25-474): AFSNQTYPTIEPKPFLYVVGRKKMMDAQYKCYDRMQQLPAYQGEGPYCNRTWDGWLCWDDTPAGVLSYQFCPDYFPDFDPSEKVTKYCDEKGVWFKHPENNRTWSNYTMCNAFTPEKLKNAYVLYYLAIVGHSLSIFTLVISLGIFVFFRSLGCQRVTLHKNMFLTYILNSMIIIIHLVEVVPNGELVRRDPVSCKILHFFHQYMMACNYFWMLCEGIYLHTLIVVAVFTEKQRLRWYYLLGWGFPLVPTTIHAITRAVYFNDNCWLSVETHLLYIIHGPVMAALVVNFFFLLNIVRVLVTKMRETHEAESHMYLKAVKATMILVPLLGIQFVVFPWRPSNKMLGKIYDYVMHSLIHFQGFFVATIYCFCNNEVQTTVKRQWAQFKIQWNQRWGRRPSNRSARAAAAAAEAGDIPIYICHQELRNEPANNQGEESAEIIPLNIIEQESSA
How it was run: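 COS-7 cells stably expressing human CTR (2000 cells/well) treated with 4-fold serially diluted compounds in HBSS/20 mM HEPES/0.5 mM IBMX/0.1% casein, 30 min at 37° C. cAMP quantified by HTRF (cAMP-d2 plus anti-cAMP cryptate, 1 h RT), fluorescence read at 665 and 615 nm.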

Sequence of human calcitonin receptor (CTR) and RAMP3 (AMY3) (O60896 24-148, one chain of several): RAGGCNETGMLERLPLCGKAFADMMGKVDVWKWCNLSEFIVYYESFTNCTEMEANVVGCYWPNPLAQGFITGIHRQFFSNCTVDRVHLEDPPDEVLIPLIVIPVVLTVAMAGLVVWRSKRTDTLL

pEC50 [1] | pEC50 [2] | SMILES
6.94 | 7.85 | Cc1nnc(-c2c(CCc3ccc(F)cc3F)nc3c(c2-c2ccc(C(=O)NCc4ccc(F)c(F)c4)s2)C(=O)N2CCC[C@@H]32)o1 [Compound 42, 5-[(9aS)-2-[2-(2,4-difluorophenyl)ethyl]-3-(5-methyl-1,3,4-oxadiazol-2-yl)-5-oxo-7,8,9,9a-tetrahydropyrido[2,3-a]pyrrolizin-4-yl]-N-[(3,4-difluorophenyl)methyl]thiophene-2-carboxamide]
7.60 | 8.28 | Cc1nnc(-c2c(CCc3ccc(F)cc3)nc3c(c2-c2ccc(C(=O)NCc4ccc(F)c(F)c4)s2)S(=O)(=O)CC3C(C)C)o1 (centres unmarked) [Compound 19, N-(3,4-difluorobenzyl)-5-(5-(4-fluorophenethyl)-3-isopropyl-6-(5-methyl-1,3,4-oxadiazol-2-yl)-1,1-dioxido-2,3-dihydrothieno[3,2-b]pyridin-7-yl)thiophene-2-carboxamide]
7.32 | 8.35 | Cc1nnc(-c2c(CCc3ccc(F)cc3)nc3c(c2-c2ccc(C(=O)NCc4ccc(F)c(F)c4)s2)C(=O)N2CCC[C@@H]32)o1 [Compound 4, (S)—N-(3,4-difluorobenzyl)-5-(2-(4-fluorophenethyl)-3-(5-methyl-1,3,4-oxadiazol-2-yl)-5-oxo-7,8,9,9a-tetrahydro-5H-pyrido[2,3-a]pyrrolizin-4-yl)thiophene-2-carboxamide]
7.18 | 8.26 | Cc1nnc(-c2c(CCc3ccc(F)cc3)nc3c(c2-c2ccc(C(=O)NCc4ccc(F)c(F)c4)s2)S(=O)(=O)N2CCC[C@@H]32)o1 [Compound 17, (S)—N-(3,4-difluorobenzyl)-5-(2-(4-fluorophenethyl)-3-(5-methyl-1,3,4-oxadiazol-2-yl)-5,5-dioxido-7,8,9,9a-tetrahydropyrrolo[1′,2′:2,3]isothiazolo[4,5-b]pyridin-4-yl)thiophene-2-carboxamide]
